Converted amounts (≈) assume the structure as drawn.
Legend:
[1] = system: K562 myelogenous leukemia cells; test: Cytotoxicity, growth inhibition (MTT); type: cell-based; details: Homo sapiens, K562, 120 h; 5 days treatment; triplicate, mean ±SD; read-out: IC50: half inhibitory concentration, K562
Description: The cytotoxic activity of aurachin D (4) and analogues 9–11 and 17–19 was evaluated in growth inhibition experiments on mammalian cell lines (Table 2). After 5 days treatment, half inhibitory concentrations (IC50) were determined for human HCT-116 colon carcinoma and human K562 myelogenous leukemia cells. […]
was further incubated for 1.5 h. The medium was then discarded and 100 µL 2-propanol/10 N HCl (250:1) was added in order to dissolve formazan granules. The absorbance at 570 nm was measured using a microplate reader (EL808, Bio-Tek Instruments Inc.) and cell viability was expressed as a percentage relative to the respective solvent control. […]

[2] = system: Trypanosoma brucei gambiense strain Feo bloodstream forms; test: Antitrypanosomal assay (resazurin); type: cell-based; details: for IC50: Trypanosoma brucei, GAMBIENSE, 72 h incubation, read-out: IC50 T. brucei gambiense
Description: page 10: independent experiments. Chloroquine diphosphate (Sigma–Aldrich) was used as antimalarial drug control. Antitrypanosomal activities: Bloodstream forms of Trypanosoma brucei gambiense strain Feo were cultured in HMI9 medium supplemented with 10% FCS at 37 °C under an atmosphere of 5% CO2. Antitrypanosomal assays were performed as previously described. In all experiments, log-phage cell cultures were harvested by centrifugation at 3,000g and immediately used. Drug assays were based on the conversion of a redox-sensitive dye (resazurin) to a fluorescent product by viable cells. Drug stock solutions were prepared in pure DMSO. […] After a 72 h incubation, resazurin solution was added in each well at the final concentration of 45 µM. Fluorescence was measured at 530 nm excitation and 590 nm emission wavelengths after a further 4 h incubation. Each inhibitor concentration was tested in triplicate. The percentage of inhibition of parasite growth rate was calculated by comparing the fluorescence of parasites maintained in the presence of drug to that in the absence of drug. DMSO was used as a control. IC50s were determined from the dose–response curves with drug concentrations ranging from 100 µM to 50 nM. Pentamidine was used as antitrypanosomal drug control. MIC determination: Indicator strains were obtained from the German Collection of Microorganisms and Cell Cultures (Deutsche Sammlung für Mikroorganismen und Zellkulturen, DSMZ) or were part of our internal strain collection. All microorganisms were handled under standard conditions recommended by the depositor. Overnight S10

[3] = system: mitochondrial membrane potential in U-2 OS osteosarcoma cells; test: MMP assay (high-content screening, TMRM); type: cell-based, human; details: 16 h; for reduction of the MMP: at concentrations as low as 5 µg/mL; for mitochondrial membrane potential (MMP), % of the control value: highest assay concentration (10 µg/mL), TMRM; for effect on MMP in the tested concentration range: 1 to 10 µg/mL
Description: Since aurachins are described as electron-transport inhibitors of the mitochondrial respiratory chain (complex I and III), we analyzed the synthetic analogues in high-content screening experiments with respect to a decrease of the mitochondrial membrane potential (MMP). Human U-2 OS osteosarcoma cells were treated for 16 hours with aurachins 4, 9–11, and 17–19 at concentrations between 1 and 10 µg/mL, and mitochondria were labeled with tetramethylrhodamine methyl ester (TMRM) in order to assess changes in MMP (Figure 2). Most prominent concentration-dependent effects were determined for aurachin D (4) and one of its analogues (17). […] This might be due to differential effects on different cell lines, a different time course of electron-transport inhibition, or a different mode of inducing apoptosis (e.g., via enhanced ROS formation). However, at the highest assay concentration also shorter chain analogues 9–11 reduced the MMP to approximately 60–80% of the control value as exemplarily shown for geranyl analogue 9 (Figure 2B).
Figure 2 (A) Loss of mitochondrial membrane potential in human U-2 OS osteosarcoma cells that were treated with aurachin D (4) and analogue 17. Images were acquired on a BD Pathway855 automated microscope and subsequently processed in AttoVision v1.6.2. The relative MMP was calculated based on TMRM fluorescence intensity in the cytoplasmic segments. The value of the negative control (untreated cells) was set to 100% and the value of FCCP-treated cells (positive control) was set to 0%. Bars represent the mean ±SEM of all cellular segments within a well. (B) Representative HCS images of U-2 OS cells that were treated with aurachin D (4) or the geranyl analogue 9. Cells were labeled with TMRM and imaged in the rhodamine channel at 200× magnification. […]
MMP assay: Human U-2 OS osteosarcoma cells (HTB-96) were obtained from the American Type Culture Collection (ATCC) and were cultured under the conditions recommended by the depositor. Cells from actively growing cultures were harvested and seeded at 8 × 10^3 cells per well in 96-well imaging plates (BD Falcon). After 1 d cells reached approximately 60% confluency and were treated with aurachin analogues at the assigned concentrations for 16 h. In addition, cells were stimulated with 1 µM FCCP [carbonyl cyanide 4-(trifluoromethoxy)phenylhydrazone] as a positive control 1 h prior to the measurement. For labeling, cells were washed twice with assay buffer ([…], 5.4 mM KCl, 2 mM MgCl2, 10 mM glucose, 2 mM CaCl2, 10 mM HEPES; pH 7.35) and 100 µL of a staining solution (50 nM TMRM, […]
5 µg/mL Hoechst33342 in assay buffer) was added. The cells were stained for 30 min at 37 °C and after washing with assay buffer the samples were examined on an automated microscope (BD Pathway855) in 200-fold magnification with appropriate filter sets for rhodamine and Hoechst. For image analysis, a dual mask (Cyto-Nuc-Ring) was applied in AttoVision v1.6.2. Presented rhodamine fluorescence intensity values were generated in the cytoplasmic segment (ring around nuclei) on a single cell basis and averaged over the complete sample (well).
In vitro antiplasmodial assays: The chloroquine-resistant strain FcB1/Colombia of Plasmodium falciparum was maintained in vitro on human erythrocytes in RPMI 1640 medium supplemented by 8% (v/v) heat-inactivated human serum, at 37 °C, under an atmosphere of 3% CO2, 6% O2, and 91% N2. In vitro drug susceptibility assays was measured by [3H]-hypoxanthine incorporation as described. Drugs were prepared in DMSO at a 10 mg/mL concentration. Compounds were serially diluted two-fold with 100 µL culture medium in 96-well plates. Asynchronous parasite cultures (100 µL, 1% parasitaemia and 1% final hematocrite) were then added to each well and incubated for 24 h at 37 °C prior to the addition of 0.5 µCi of [3H]- hypoxanthine (GE Healthcare, France, 1 to 5 Ci·mmol/mL) per well. After a further incubation of 24 h, plates were frozen and thawed. […]

Structure (SMILES) | IC50 [1] [mg/L] | IC50 [2] [mg/L] | antitrypanosomal selectivity index ([2]; Vero cytotoxic concentration / concentration active on T. brucei gambiense) | reduction of the MMP [3] | mitochondrial membrane potential (MMP), % of the control value [3] | effect on MMP in the tested concentration range [3]
CC(C)=CCC/C(C)=C/CC/C(C)=C/Cc1c(C)[nH]c2ccccc2c1=O [compound 4, aurachin D] | 0.65 ± 0.16 (≈ 1.79 µM) | 0.4 (≈ 1.1 µM) | 35 | significantly reduced the MMP | approximately 50% | 
CC(C)=CCC/C(C)=C/Cc1c(C)[nH]c2ccccc2c1=O [compound 9] | 1.5 ± 0.31 (≈ 5.08 µM) | 1.5 (≈ 5.08 µM) |  |  | 60–80% | 
CC(C)=CCCC(C)=CCCC(C)=CCc1c(C)[nH]c2ccc3ccccc3c2c1=O [compound 17] | ~10 (≈ 24.2 µM) | 0.8 (≈ 1.93 µM) |  | significantly reduced the MMP |  | strongly diminished the MMP
COc1ccc2[nH]c(C)c(CC=C(C)CCC=C(C)CCC=C(C)C)c(=O)c2c1 [compound 18] | 1.15 ± 0.22 (≈ 2.92 µM) | 1.6 (≈ 4.07 µM) |  |  |  | essentially inactive
CC(C)=CCCC(C)=CCCC(C)=CCc1c(C)[nH]c2cc3c(cc2c1=O)OCO3 [compound 19] | > 10 | > 10 |  |  |  | essentially inactive
